From article PMC5306082, “Physiologically based kinetic modeling of the bioactivation of myristicin” (Archives of Toxicology, 2016)

What was measured:
DNA = conditions: ref Zhou et al. [2007a]; Kobets et al. [2016]; Phillips et al. [1984]; Randerath et al. [1984]; cited from earlier work
[1] = Microsomal conversion of myristicin, male rat liver microsomes; format: in vitro ADME; conditions: for Vmax / In vitro catalytic efficiency: formation of the metabolite from myristicin; for Vmax: NADPH, mean of three ± SD; for In vitro catalytic efficiency: Vmax/Km × 1000; for Scaled Vmax, in vivo / In vivo catalytic efficiency: from myristicin; for Scaled Vmax, in vivo: microsomal protein yield 35 mg/g liver; for In vivo catalytic efficiency: scaled Vmax/Km
Procedure: (§1) First, it was determined which organs are involved in the biotransformation of myristicin in rat and human. For this purpose, liver, kidney, lung, and small intestine microsomes from male Sprague–Dawley rat and pooled gender human were used. Incubations were performed by adding myristicin to incubation mixtures containing 1 mg/mL of the microsomal protein preparations and 3 mM NADPH in 0.2 M Tris–HCl (pH 7.4). After 1 min of pre-incubation at 37 °C, myristicin (final concentration, 1000 μM) was added from a 100 times concentrated stock solution in DMSO so that the final DMSO content was 1 % (v/v). Incubations were carried out for 30 min after which the reactions were terminated by adding 25 µl (0.25 times the incubation volume) of ice-cold ACN. Samples were centrifuged for 5 min at 13,000×g, and the supernatant was stored at −20 °C until UPLC analysis. As metabolism of myristicin was observed only in incubations with liver microsomes for male rats and pooled gender human, the determination of kinetic constants for the formation of microsomal metabolites was performed only for the liver fractions. Incubations to determine kinetic constants were performed following the conditions described above using final concentrations of myristicin from 25 to 1000 μM for rat and human liver. In all incubations, the final concentration of DMSO, in which myristicin was dissolved, was kept at 1 % (v/v). The formation of different microsomal metabolites was linear with time and microsomal protein concentration under the conditions described. Blank incubations were performed in the absence of the cofactor NADPH. All incubations were performed in triplicate.
(§2) Secondary metabolism of the relevant 1′-hydroxy metabolite of myristicin was taken into account by determining the kinetic constants for its conversion in (a) glucuronidation, (b) sulfation, and (c) oxidation, again under conditions that allowed adequate definition of kinetic constants and with <10 % substrate conversion. Incubation samples were subjected to UPLC analysis that was performed as described previously (Punt et al. [2008]). Identification was achieved by comparing the UV spectra of the formed metabolites to the spectra of the synthesized 1′-hydroxymyristicin and 1′-oxomyristicin reference standards. Quantification of all formed metabolites was done by comparing the peak areas to those of calibration curves of the corresponding reference compounds, determined using UPLC with photodiode array detection (UPLC-PDA). The UPLC system was composed of a Waters (Waters, Milford, MA) Acquity solvent manager, sample manager, and photodiode array detector, equipped with Water Acquity UPLC BEH C18 column.
(§3) The gradient for analysis of microsomal metabolites was performed with 100 % ACN and ultrapure water containing 0.1 % (v/v) TFA. The flow rate was 0.6 ml/min. The gradient started at 10 % ACN, increased to 50 % ACN over 4 min, increased to 80 % over 0.5 min, followed by decrease to 10 % ACN over 0.5 min, and finally kept at 10 % for 1 min.

[2] = Microsomal conversion of myristicin, human liver microsomes; format: in vitro ADME; conditions: for Vmax / In vitro catalytic efficiency: formation of the metabolite from myristicin; for Vmax: NADPH, mean of three ± SD; for In vitro catalytic efficiency: Vmax/Km × 1000; for Scaled Vmax, in vivo / In vivo catalytic efficiency: from myristicin; for Scaled Vmax, in vivo: microsomal protein yield 32 mg/g liver; for In vivo catalytic efficiency: scaled Vmax/Km
Procedure: as §1, §2, §3

[3] = Glucuronidation of 1′-hydroxymyristicin, human liver S9; format: in vitro ADME
Procedure: (§4) The kinetic constants for the metabolic conversion of 1′-hydroxymyristicin to 1′-hydroxymyristicin glucuronide (HMG) by both male rat and human liver fractions were determined as described previously for the related 1′-hydroxyalkenylbenzenes (Punt et al. [2008]; van den Berg et al. [2012]; Punt et al. [2009]; Martati et al. [2011], [2012]; Al-Subeihi et al. [2011], [2012]). Briefly, incubations contained (final concentrations) 10 mM of UDPGA and 0.5 mg/ml of male Sprague–Dawley or pooled gender human S9 protein in 0.2 M Tris–HCl (pH 7.4) containing 10 mM of MgCl2. To overcome enzyme latency and to obtain maximal glucuronidation activity, incubations containing S9 were pretreated on ice with 0.025 mg/ml alamethicin added from a 200 times concentrated stock dissolved in methanol (Fisher et al. [2000]; Lin and Wong [2002]). After 15 min of alamethicin treatment, samples were pre-incubated at 37 °C for 1 min, and reactions were subsequently started by adding 1′-hydroxymyristicin at final concentrations of 10 to 1200 μM. 1′-Hydroxymyristicin was added from 100 times concentrated stock solutions in DMSO. The reaction mixtures were incubated for 30 and 180 min for rat and human, respectively, and terminated by adding 25 µl (0.25 times the incubation volume) of ice-cold ACN. Blank incubations were carried out in the absence of the cofactor UDPGA. Experiments were performed in triplicate. The longer incubation time in human samples was required due to the lower rate of glucuronidation. The formation of 1′-hydroxymyristicin glucuronide was linear with time and the S9 protein concentration under the experimental conditions described. All samples were centrifuged for 5 min at 16,000×g, and the supernatant was stored at −20 °C until ultra-performance liquid chromatography (UPLC) analysis.
(§5) 1′-Hydroxymyristicin glucuronide was estimated based on the comparison of the peak area of the formed metabolite to the calibration curve of 1′-hydroxymyristicin at a wavelength of 210 nm. The flow rate was 0.6 ml/min. The gradient was made using a mixture of ACN and ultrapure water containing 0.1 % (v/v) TFA.

[4] = Glucuronidation of 1′-hydroxymyristicin, male rat liver S9; format: in vitro ADME
Procedure: as §4, §5

[5] = tested on: freshly isolated rat hepatocytes in primary culture; conditions: 10^−6 to 10^−3 M; ref Howes et al. [1990]; cited from earlier work
[6] = Oxidation of 1′-hydroxymyristicin to 1′-oxomyristicin, rat liver microsomes; format: in vitro ADME
Procedure: (§6) The kinetic constants for the enzymatic conversion of 1′-hydroxymyristicin to 1′-oxomyristicin were determined using incubation mixtures containing (final concentrations) 3 mM NAD^+, 2 mM GSH, and 1 mg/ml rat or human liver microsomes in 0.2 M Tris–HCl (pH 7.4). GSH was added to the incubation mixtures to trap the reactive 1′-oxo metabolite formed after oxidation of 1′-hydroxymyristicin. The level of GSH in the incubations was optimized in a previous study to obtain maximum scavenging of 1′-oxoestragole (Punt et al. [2009]). To this end, incubations were performed in the presence of increasing concentrations of GSH, ranging from 2 to 10 mM. […] Kinetic constants for this reaction in rat and human liver were derived by performing incubations with NAD^+ as a cofactor, given that in rat and human liver, NAD^+ is mainly present in an oxidized form with levels of NAD^+ being much higher than those of NADH. In a previous study, it was shown that the highest level of 1′-hydroxy alkenylbenzene oxidation occurs in incubations with microsomes in the presence of NAD^+ as cofactor. […] The enzyme responsible for the oxidation may be 17β-hydroxysteroid dehydrogenase type 2 (17β-HSD2) (Punt et al. [2010]). Prior to the addition of 1′-hydroxymyristicin at final concentrations ranging between 10 and 4000 μM to the incubation mixture from 100 times concentrated stock solutions in DMSO, samples were pre-incubated for 1 min at 37 °C. Reactions were terminated after 10 min of incubation at 37 °C by adding 25 μl (0.25 times the incubation volume) of ice-cold ACN. The formation of the GSH conjugate of 1′-oxomyristicin (GS-1′-oxomyristicin) was linear with time and microsomal protein concentration under the experimental conditions used. Blank incubations were performed without the cofactor NAD^+. Incubations were performed in triplicate. All samples were centrifuged for 5 min at 13,000×g, and the supernatant was stored at −20 °C until UPLC analysis.
(§7) Quantification of GS-1′-oxomyristicin was based on a calibration curve of the GSH adduct of the synthesized 1′-oxymyristicin made as previously described (van den Berg et al. [2012]; Punt et al. [2009]; Martati et al. [2011]; Al-Subeihi et al. [2011]). In short, a 60 μM concentration of the synthetic standard of 1′-oxomyristicin, dissolved in ACN, was incubated with different concentrations of GSH (i.e., 0–20 μM) in 0.2 M Tris–HCl (pH 7.4) for 6 h at 37 °C, resulting in full conversion of the GSH to GS-1′-oxymyristicin. Quantification was done by comparing the peak areas of the formed GS-1′-oxo metabolite in the incubation mixtures with peak areas of the GS-1′-oxymyristicin calibration curve thus obtained at a wavelength of 212 nm. The gradient for analysis of the metabolite consisted of a mixture of ACN and ultrapure water containing 0.1 % (v/v) TFA. The flow rate was 0.6 ml/min, The gradient started with 10 % ACN, increased to 30 % ACN over 2.5 min, after which ACN was increased to 80 % over 0.5 min, kept at 80 % for 0.5 min, followed by a decrease to 10 % over 0.5 min, and finally kept at 10 % for 0.5 min.

[7] = Oxidation of 1′-hydroxymyristicin to 1′-oxomyristicin, human liver microsomes; format: in vitro ADME
Procedure: as §6, §7

[8] = 1′-hydroxymyristicin to its glucuronide, S9, UDPGA
[9] = 1′-hydroxymyristicin to its glucuronide, Vmax/Km
[10] = glucuronidation of 1′-hydroxymyristicin, S9 protein yield 143 mg/g liver
[11] = glucuronidation of 1′-hydroxymyristicin, scaled Vmax/Km
[12] = 1′-hydroxymyristicin to 1′-oxomyristicin, Vmax/Km
[13] = 1′-hydroxymyristicin to 1′-oxomyristicin, microsomes, NAD+, GSH trapping
[14] = oxidation of 1′-hydroxymyristicin, scaled Vmax/Km

C=CCc1ccc(OC)cc1 [estragole]
DNA adduct formation, result (DNA): positive results

COc1cc(/C=C/CO)cc2c1OCO2 [3′-Hydroxymyristicin, 3′-hydroxymyristicin]
Vmax [1]: 0.47 ± 0.09 nmol min^−1 (mg microsomal or S9 protein)^−1 | In vitro catalytic efficiency [1]: 5.663 μl min^−1 (mg microsomal or S9 protein)^−1 | Scaled Vmax, in vivo [1]: 0.987 μmol/h/g tissue | In vivo catalytic efficiency [1]: 0.0119 ml/h/g tissue | Vmax [2]: 0.29 ± 0.14 nmol min^−1 (mg microsomal or S9 protein)^−1 | In vitro catalytic efficiency [2]: 0.178 μl min^−1 (mg microsomal or S9 protein)^−1 | Scaled Vmax, in vivo [2]: 0.557 μmol/h/g tissue | In vivo catalytic efficiency [2]: 0.0003 ml/h/g tissue

C=CC(OC1OC(C(=O)O)C(O)C(O)C1O)c1cc(OC)c2c(c1)OCO2 (stereo not shown) [1′-Hydroxymyristicin glucuronide, 1′-hydroxymyristicin glucuronide]
Vmax [3, 8]: 0.08 ± 0.03 nmol min^−1 (mg microsomal or S9 protein)^−1 | In vitro catalytic efficiency [3, 9]: 0.025 μl min^−1 (mg microsomal or S9 protein)^−1 | Km at 180 min ([3]; both sexes, human, pH 7.4): 3.14 ± 2.43 mM | Scaled Vmax, in vivo [3, 10]: 0.6864 μmol/h/g tissue | In vivo catalytic efficiency [3, 11]: 0.0002 ml/h/g tissue | Vmax [4, 8]: 8.6 ± 2.0 nmol min^−1 (mg microsomal or S9 protein)^−1 | In vitro catalytic efficiency [4, 9]: 10.287 μl min^−1 (mg microsomal or S9 protein)^−1 | Scaled Vmax, in vivo [4, 10]: 73.788 μmol/h/g tissue | In vivo catalytic efficiency [4, 11]: 0.0883 ml/h/g tissue | Km at 30 min ([4]; male, Sprague-Dawley, rat, pH 7.4): 836 ± 336 µM

COc1cc(CC(O)CO)cc2c1OCO2 (stereo not shown) [2′,3′-Dihydroxymyristicin]
Vmax [1]: 0.44 ± 0.08 nmol min^−1 (mg microsomal or S9 protein)^−1 | In vitro catalytic efficiency [1]: 27.5 μl min^−1 (mg microsomal or S9 protein)^−1 | Scaled Vmax, in vivo [1]: 0.924 μmol/h/g tissue | In vivo catalytic efficiency [1]: 0.0578 ml/h/g tissue | Vmax [2]: 0.08 ± 0.01 nmol min^−1 (mg microsomal or S9 protein)^−1 | In vitro catalytic efficiency [2]: 2.424 μl min^−1 (mg microsomal or S9 protein)^−1 | Scaled Vmax, in vivo [2]: 0.154 μmol/h/g tissue | In vivo catalytic efficiency [2]: 0.0047 ml/h/g tissue

C=CCc1ccc(OC)c(OC)c1 [methyleugenol]
DNA adduct formation, result (DNA): positive results | unscheduled DNA synthesis (UDS) [5]: induced unscheduled DNA synthesis (UDS)

C=CC(=O)c1cc(OC)c2c(c1)OCO2 [1′-Oxomyristicin, 1′-oxomyristicin]
In vitro catalytic efficiency [6, 12]: 7.369 μl min^−1 (mg microsomal or S9 protein)^−1 | Vmax [6, 13]: 43.64 ± 20.9 nmol min^−1 (mg microsomal or S9 protein)^−1 | Scaled Vmax, in vivo ([6]; oxidation of 1′-hydroxymyristicin, microsomal protein yield 35 mg/g liver): 91.644 μmol/h/g tissue | In vivo catalytic efficiency [6, 14]: 0.0155 ml/h/g tissue | In vitro catalytic efficiency [7, 12]: 9.864 μl min^−1 (mg microsomal or S9 protein)^−1 | Vmax [7, 13]: 32 ± 14 nmol min^−1 (mg microsomal or S9 protein)^−1 | Scaled Vmax, in vivo ([7]; oxidation of 1′-hydroxymyristicin, microsomal protein yield 32 mg/g liver): 61.44 μmol/h/g tissue | In vivo catalytic efficiency [7, 14]: 0.0189 ml/h/g tissue
